# In patent US11806343B2, “Inhibitors of DUX4 induction for regulation of muscle function” (Sonic Master Limited, priority 2017, dated 2023):
# Assays:
# PRKDC [1] = assay: RT-PCR of PRKDC mRNA in patient biopsy-derived primary myotubes; format: cell-based, human; details: 10 nM-1 μM, 2.5 days, vs vehicle
# Experimental: (§1) Patient biopsy-derived primary myoblasts were seeded to a collagen-I coated plate in primary myoblast medium. Medium was changed every other day until cells reached 80% confluence followed by a switch to primary myotube medium. […] After 2.5 days of myotube formation, the cells were lysed with buffer RLT followed by RNA isolation with RNeasy Plus Mini Kit (Qiagen). 500 ng of RNA was used for cDNA synthesis with SuperScript III first-strand synthesis system for RT-PCR (Invitrogen) and both random hexamers and oligo(dT)20 primers. RT-PCR was performed using TaqMan™ Fast Advanced Master Mix (Applied Biosystems). Reactions were analyzed upon a QuantStudio 3 Real-Time PCR machine using the following cycle conditions: 50° C. for 2 minutes, 95° C. for 2 minutes, followed by 40 cycles at 95° C. for 15 seconds, 60° C. for 1 minute, Results were normalized against GAPDH expression.
# PRKDC [2] = assay: Immunofluorescence of nuclear phosphorylated PRKDC^2609 in primary myocytes; format: cell-based, human; details: 100 nM or 500 nM, 1 hour
# Experimental: Patient biopsy-derived primary myoblasts were seeded to a collagen-I coated plate in primary myoblast medium. Medium was changed every other day until cells reached 80% confluence followed by a switch to primary myotube medium. […] PRKDC (phosphorylated PRKDC^2609), active SRC (phosphorylated SRC^416), and nuclei.
# myotube marker genes = assay: Nanostring panel transcript analysis, myogenic genes; format: cell-based, human; details: 17MB026 primary myotubes, 30 nM-3 μM, 3 days
# Experimental: 17MB026 primary FSHD-affected patient myoblasts (obtained from the University of Rochester FSHD Biorepository) were thawed and cultured as described in Rickard et al., 2015 in primary myoblast medium. Cells (4000 per well) were seeded to a collagen-I coated 96-well plate in 100 μL primary myoblast medium. Medium was changed every other day until cells reached 80% confluence followed by a switch to 100 μL per well primary myotube medium. […] Cells were lysed after 3 days of myotube formation using 10 μL of iScript Buffer (Biorad) per well. The resulting lysates were frozen at −30° C. After thaw, 5 μL of each lysate was combined with a custom-designed Nanostring transcript probe and capture codeset. Probes were hybridized to lysates and run cartridge was loaded and run per standard protocol. Normalization and background subtraction were performed using the nSolver 3.0 software using standard conditions DUX4 target gene and myotube marker gene expression values were normalized to a standard set of housekeeping genes. Duplicate wells of each condition were averaged.
# DUX4 = assay: FSHD hESC-SkM immunocytochemistry, DUX4 expression; format: cell-based, human
# Experimental: (§2) FIG. 6 provides an example of a screening and culturing workflow for hESC-SkM assays. At Day 0, hESC-derived myoblasts are thawed into a 96-well plate in myoblast medium (Genea BioCells). On Day 2, the medium is replaced with new myoblast medium containing 1.15 μM. Decitabine. […] On Day 7, the myotubes are analyzed. For example, the myotubes may be analyzed for MHC expression or DUX4 expression.
# (§3) Genea049 FSHD-affected human Embryonic Stem Cells (hESCs) were differentiated using Genea's myogenic differentiation protocol (Caron et 2015) to the myoblast stage and cryopreserved. Frozen myoblasts were resuscitated and 4500 cells were plated into each well of a 96-well collagen I coated tissue culture plate in myoblast medium. After two days of cell growth medium was changed to 100 μL per well myoblast medium containing 1.15 μM Decitabine. […] Cells were allowed to differentiate to myotubes for four additional days then were fixed and analyzed for quantification of DUX4 expression, Myosin Heavy Chain expression, and nuclei number. Triplicate wells of each condition were averaged.
# as §3, with “et al.,” for “et”, “number by high-content imaging.” for “number.”
# [3] = Tissue distribution study, brain and muscle; format: in vivo, CD-1 mice; details: mouse; for Uninjected muscle exposure / brain exposure: samples at 1 hour and 24 hours
# Experimental: Intraperitoneal injection, which provides the drug via absorption into the mesenteric blood supply and is thus subject to hepatic first-pass metabolism, was used to approximate oral dosings total of 96 mice were utilized: 3 naive CD-1 male mice and 3 naïve CD-1 female mice were dosed per route of administration per 2 doses plus 3 naive CD-1 male mice and 3 naïve CD-1 female mice were per route of administration per dose for tissue collection. Following administration, blood, brain, and muscle samples were collected as follows; Two blood samples were collected from each mouse at 2 distinct timepoints over 24 bout post-dose to include 0.25, 0.5, 1, 2, 4, 8, and 24 hours. Blood samples were centrifuged to obtain plasma samples. For each time point, duplicate aliquots of plasma were transferred into an appropriately labeled sample tube containing a volume of buffer. The diluted plasma samples were stored at −20° C. for the first 24 hours and then transferred to −80° C. 24 hours of processing. Terminal brain and muscle samples were collected at 1 hour and 24 hours after administration. Tissue samples were temporarily put on dry ice and then stored at −20° C. for the first 24 hours and then transferred to −80° C. 24 hours of collection Plasma, brain and muscle samples were analyzed for test substance quantification using a method based on protein precipitation followed by HPLC-MS/MS analysis within optimized bioanalytical method.
# FIG. 31B. […] For IM injected animals, both the injected gastrocnemius muscle and the contralateral (uninjected gastrocnemius)) muscle were collected. […] Concentrations are shown as mean with SD, N=6
# SRC = assay: RT-PCR of SRC mRNA in patient biopsy-derived primary myotubes; format: cell-based, human; details: 10 nM-1 μM, 2.5 days, vs vehicle
# Experimental: as §1
# Caspase 3/7 = assay: Live cell imaging of Caspase 3/7 cleavage dye fluorescence through myotube formation; format: cell-based, human; details: 17MB026 primary myotubes, six concentrations 10 nM-3 μM, imaged four days
# Experimental: 17MB026 primary FSHD-affected patient myoblasts (obtained from the University of Rochester FSHD Biorepository) were thawed and cultured as described in Rickard et al., 2015 in primary myoblast medium. Cells (4000 per well) were seeded to a collagen-I coated 96-well plate in 100 μL primary myoblast medium. Medium was changed every other day until cells reached 80% continence followed by a switch to 100 μL per well primary myotube medium containing 1:5000 diluted Caspase 3/7 Green. Apoptosis Assay Reagent (Essen Bioscience). […] Cells were imaged in the phase and green channels every six hours for four days to quantify green intensity×area per image. Triplicate wells of each condition were averaged.
# Genea049 FSHD hESC-SkM = assay: FSHD hESC-SkM immunocytochemistry, Myosin Heavy Chain and nuclei (myogenic inhibition/toxicity); format: cell-based, human
# Experimental: as §2, §3
# as §3, with “et al.,” for “et”, “number by high-content imaging.” for “number.”
compound,measurement,setting,value
"CNC(=O)c1cc(Oc2ccc(NC(=O)Nc3cc(C(C)(C)C)nn3-c3ccc4ncccc4c3)c(F)c2)ccn1 [GBC0905, Rebastinib]",expression levels of PRKDC (mRNA),PRKDC [1],No significant difference
same,intensity distribution of nuclear phosphorylated PRKDC^2609 (kinase activity),PRKDC [2],significant shift towards lower intensity levels
same,expression of characteristic myotube genes,myotube marker genes,does not decrease expression of queried characteristic myotube genes
same,DUX4 expression,"DUX4; Genea049 hESC-SkM, 100 nM, four days of culture during myotube formation",decreased DUX4 expression
same,"DUX4 expression, dose curve","DUX4; Genea049 hESC-SkM, six concentration points 10 nM-3 μM, four days",dose-dependent decreased DUX4 expression
same,IC50,"DUX4; Homo sapiens, Genea049 hESC-SkM dose curve, read-out: estimated IC50 value, DUX4-suppressive effect",~100 nM
same,Brain concentration,[3]; 24 hours after IM injection at 10 mg/kg,below the Lower Limit of Quantification (LLOQ)
same,Uninjected muscle exposure,[3]; intramuscular administration,≤ 157 ng/g
same,brain exposure,[3]; intramuscular administration,≤ 351 ng/g
same,Exposure of the injected muscle (gastrocnemius),"[3]; intramuscular dosing, after 24 hours",1441667 ng/g
same,Uninjected muscle exposure,[3]; intraperitoneal administration,up to 1336 ng/g
same,brain exposure,[3]; intraperitoneal administration,up to 441 ng/g
same,expression levels of SRC (mRNA),SRC,No significant difference
same,Caspase 3/7 activation,Caspase 3/7,dose-dependent decrease in Caspase 3/7 activation
same,"Myosin Heavy Chain expression and nuclei count, dose curve","Genea049 FSHD hESC-SkM; 10 nM-3 μM, four days",not seen in cells treated with GBC0905 (Rebastinib) at concentrations lower than 3 μM
same,Myosin Heavy Chain expression and nuclei count,"Genea049 FSHD hESC-SkM; 100 nM, four days of culture",these effects are not seen
